Tested on: human platelets in platelet-rich plasma (PRP)
Assay: Platelet aggregation inhibition assay (ADP-induced, aggregometer)
Assay type: cell-based
Details: fresh human PRP, 250,000 platelets/μL; aggregation induced with 20 micromolar ADP at 37° C.; inhibitor added about 1 min before ADP; read-out: IC50 (concentration of inhibitor that reduced the extent of platelet aggregation by 50%)
Description: Platelet aggregation studies were performed essentially as described by Zucker (1989, Methods in Enzymol. 169: 117-133). Briefly, platelet aggregation was assayed with or without putative platelet aggregation inhibitory compounds using fresh human platelet-rich plasma (PRP), comprising 250,000 platelets per microlitre. Whole human blood (36 mL) were freshly drawn from volunteers who were medication-free for at least 2 weeks prior to blood draw. Blood was drawn into 4 mL of a 0.1M sodium citrate solution and centrifuged (150 g for 20 min at 22° C.) to pellet red blood cells. The supernatant, comprising PRP, was removed and the remaining blood recentrifuged at 8000 g for 10 min to produce platelet-poor plasma (PPP; used to dilute the PRP to a final concentration of 250,000 platelets/μL). Alternatively, PPP was prepared by centrifugation of PRP for 1 min in a tabletop microcentrifuge. PPP is also used as a negative control for platelet aggregation.
Platelet aggregation was induced by the addition at 37° C. of a solution of adenosine diphosphate to a final concentration of 20 micromolar, and the extent of platelet aggregation monitored using a four channel aggregometer (Model IV Plus, Helena Laboratories, Beaumont, Tex.). […] Inhibition curves for a variety of disintegrins comprising the peptide sequence RGD was determined for each batch of platelets tested as positive controls.

Question: With “CH2 CO-YD .Amp.GDCKGCG.amide [P734 peptide]” as the substance, how does the IC50 read?
Answer: 67 nM

From patent publication US5951981A, “Thrombolytic agents with antithrombotic activity” (Diatide, Inc., priority 1996, dated 1999)
